Results published in patent US11161845B2, “Pyrrolopyridine-aniline compounds for treatment of dermal disorders” (Nflection Therapeutics, Inc., priority 2017, dated 2021).
Read-outs that look alike come from different tables or passages of the source.

Assays:
[1] = test system: HCT116 cells; test: HCT116 (Kras) GI50 cell-based assay (Cell Titer-Glo); conditions: Homo sapiens, HCT-116; 72 hours; read-out: Assay 3: HCT116 (Kras) GI50
Procedure: (§1) Alternatively, the following procedure can be used to measure cell-based activity. Test compounds were dissolved in DMSO in 10 mM stock. Cell Titer-Glo® 2.0 Luminescent cell viability assay reagent was purchased from Promega (Madison, Wis.). A375 and HCT116 cell lines were purchased from American Type Culture Collection (Manassas, Va.). For A375 cells, cell culture media was DMEM+10% FBS. For HCT116 cells, cell culture media was McCoy's 5A+10% FBS. All media were supplemented with 100 μg/mL of penicillin, and 100 μg/mL of streptomycin. Cultures were maintained at 37° C. in a humidified atmosphere of 5% CO2 and 95% air.
(§2) Test compounds were diluted in DMSO solution with 10-dose and 3-fold dilutions in a source plate starting at 10 mM. 25 nL of each test compound was delivered from the source plate to each well of the 384-well cell culture plates (T=Final) by Echo 550. 25 μL of culture medium containing 2000 of A375 or HCT116 cells was added to each of the wells in duplicates of the cell culture plates (T=0 and T=Final). 25 μL of Cell Titer Glo 2.0 reagent was added to each well of cell culture plate (T=0). The contents were mixed on an orbital shaker for 2 min and incubated at room temperature for 15 min to stabilize luminescent signal. Luminescence was recorded by Envision 2104 Multilabel Reader (PerkinElmer, Santa Clara, Calif.). The number of viable cells in culture was determined based on quantitation of the ATP present in each culture well. The cells in cell culture plate (T=Final) were incubated with the compounds at 37° C., 5% CO2 for 72 hours. 25 μL of Cell Titer Glo 2.0 reagent was added to each well. The contents were mixed on an orbital shaker for 2 min and incubated at room temperature for 15 min to stabilize luminescent signal. Luminescence was recorded by Envision 2104 Multilabel Reader (PerkinElmer, Santa Clara, Calif.). The number of viable cells in culture was determined based on quantitation of the ATP present in each culture well. The G150 curves were plotted using the GraphPad Prism 4 program based on a sigmoidal dose-response equation Y=Bottom+(Top−Bottom)/(1+10^((Log EC50−X)*HillSlope)). All parameters in the equation were calculated by GraphPad Prism 4 program. […] Accordingly, GI50 is the value of 10^X, where X was calculated by the Curve Fitting Equation when Y=50 using Excel.

[2] = biological target: T1, MEK1 (Homo sapiens, UniProt Q02750); test: MEK inhibition assay, Biological Example 1a (33P-ATP, P81 filter-binding); conditions: read-out: Assay 1: biochemical MEK IC50
T1 construct: N-terminal His-tagged recombinant human full length protein; His (N); purchased Invitrogen PV3303; host or cells: insect cells
Procedure: MEK1 inhibitory activity of compounds were tested using the following procedure. […] Activated in vitro by RAF1. MW=49.2 kDa, GenBank Accession No. NP_002746. • Substrate: 5 μM ERK2 (K52R), • Kinase-dead mutant, (GenBank Accession No. NM_0011949), aa2-358 with N-terminal His6 tag, MW=43.63 kDa, expressed in E. coli.
The substrate was prepared in freshly prepared Reaction Buffer. The kinase was delivered into the substrate solution and gently mixed. Test compounds were delivered in 100% DMSO into the kinase reaction mixture by Acoustic technology (Echo550; nanoliter range), and incubated for 20 min at room temperature. ^33P-ATP was delivered into the reaction mixture to initiate the reaction. The reaction mixture was incubated for 2 hours at room temperature. Kinase activity was detected by P81 filter-binding method.

[3] = S9 stability assay, human liver S9 fraction; format: in vitro ADME; conditions: for half-life at 1 μM / microsomal CLint at 1 μM: pH 7.4
Procedure: Compounds were assessed for metabolic stability in human skin by assessing their rate of disappearance from human S9 skin fraction. Similarly, compounds were assessed for metabolic stability in human liver by assessing their rate of disappearance from human S9 liver fraction. The protocol below can be used to assess the difference between skin and hepatic metabolism.
The assay was carried out in 96-well microtiter plates at 37° C. Reaction mixtures (25 μL) contained a final concentration of 1 μM test compound, 2 mg/mL liver or skin S9 protein, and 1 mM NADPH in buffer (100 mM potassium phosphate, pH 7.4 buffer with 1 mM EDTA, 3 mM MgCl2). At each of the time points (0, 15, 30, and 60 minutes), 150 μL of quench solution (100% acetonitrile with 0.1% formic acid) with internal standard was transferred to each well. Besides the zero minute controls, mixtures containing the same components except the NADPH were also prepared as the negative control. Verapamil or testosterone was included as a positive control to verify assay performance. Plates were sealed and centrifuged at 4° C. for 15 minutes at 4000 rpm. The supernatant was transferred to fresh plates for LC/MS/MS analysis.
All samples were analyzed on LC/MS/MS using an AB Sciex API 4000 instrument, coupled to a Shimadzu LC-20AD LC Pump system. Analytical samples were separated using a Waters Atlantis T3 dC18 reverse phase HPLC column (20 mm×2.1 mm) at a flow rate of 0.5 mL/min. The mobile phase consisted of 0.1% formic acid in water (solvent A) and 0.1% formic acid in 100% acetonitrile (solvent B).
The extent of metabolism was calculated as the disappearance of the test compound, compared to the 0-min control reaction incubations. Initial rates were calculated for the compound concentration and used to determine t1/2 values and subsequently, the intrinsic clearance, CLint=(0.693) (1/t1/2 (min)) (mL incubation/mg of S9 protein).

[4] = test system: A375 cells; test: A375 (BRAF) GI50 cell-based assay (Cell Titer-Glo); conditions: Homo sapiens, A-375; 72 hours; read-out: Assay 2: A375 (BRAF) GI50
Procedure: as §1, §2

[5] = biological target: T2, MAP2K1 (MEK1) (Homo sapiens, UniProt Q02750); test: MEK inhibition assay, Biological Example 1b (Z'-LYTE); conditions: Biological Example 1b (compounds 8, 10, 12 and 13); read-out: Assay 1: biochemical MEK IC50
T2 construct: purchased ThermoFisher
Procedure: MEK1 inhibitory activity of compounds were tested using the following procedure (protocol available at thermofisher.com/content/dam/LifeTech/migration/files/drug-discovery/pdfs.par.60256.file.dat/20130430%20ssbk%20customer %20protocol%20and %20assay%20conditions.pdf). The Z′-LYTE biochemical assay (ThermoFisher) employs a fluorescence-based, coupled-enzyme format and is based on the differential sensitivity of phosphorylated and non-phosphorylated peptides to proteolytic cleavage.
Test compounds in 100% DMSO were screened in 1% DMSO (final) in the well. For 10 point titrations, 3-fold serial dilutions are conducted from the starting concentration of 30 μM.
After the 1 hour incubation, 5 μL of a 1:1024 dilution of Development Reagent A (available from Invitrogen, catalog no. PV3295) was added.
ATP solutions were diluted to a 4× working concentration in Kinase Buffer (50 mM HEPES pH 7.5, 0.01% BRIJ-35, 10 mM MgCl2, 1 mM EGTA). ATP Km apparent was previously determined using a Z′-LYTE assay. The Development Reagent was diluted in Development Buffer (available from Invitrogen, catalog no. P3127).
Assay Protocol: 2.5 μL of 4× test compound or 100 nL of 100× Test Compound plus 2.4 μL Kinase Buffer, 5 μL of the 2× Peptide/Kinase Mixture, 2.5 μL of 4×ATP Solution were added to the plates and placed on a shake plate for 30-seconds. The kinase reaction was allowed to proceed for 60-minute at room temperature, before 5 μL of Development Reagent Solution was added, and the mixture agitated for 30-seconds on a shake plate. The mixture was incubated for 60-minute at room temperature. Fluorescence was measured using a plate reader and the data were analyzed.
This control yielded 100% cleaved peptide in the Development Reaction. The 100% Phosphorylation Control, which consisted of a synthetically phosphorylated peptide of the same sequence as the peptide substrate, was designed to allow for the calculation of percent phosphorylation. This control yielded a very low percentage of cleaved peptide in the Development Reaction. The 0% Phosphorylation and 100% Phosphorylation Controls allow for the calculation of the percent phosphorylation achieved in a specific reaction well.
The minimum emission ratio in a screen was established by the 0% Inhibition Control, which contained active kinase. This control was designed to produce a 10-50% phosphorylated peptide in the Kinase Reaction. […]
A known inhibitor control standard curve, 10 point titration, was run for each individual kinase on the same plate as the kinase to ensure the kinase was inhibited within an expected IC50 range previously determined.
The following controls are prepared for each concentration of Test Compound assayed. […] The expected value for a non-fluorescence compound should be 0%. […]
The data in Table A was calculated. […]

[6] = human, liver S9 fraction, Table 2, 1 μM, 2 mg/mL S9 protein, NADPH, read-out: Assay 4: human liver S9 half-life
[7] = human, liver S9 fraction, Table 2, 1 μM, 2 mg/mL S9 protein, NADPH, read-out: Assay 5: human liver S9 instrinsic clearance value

T2 sequence (Q02750 whole entry): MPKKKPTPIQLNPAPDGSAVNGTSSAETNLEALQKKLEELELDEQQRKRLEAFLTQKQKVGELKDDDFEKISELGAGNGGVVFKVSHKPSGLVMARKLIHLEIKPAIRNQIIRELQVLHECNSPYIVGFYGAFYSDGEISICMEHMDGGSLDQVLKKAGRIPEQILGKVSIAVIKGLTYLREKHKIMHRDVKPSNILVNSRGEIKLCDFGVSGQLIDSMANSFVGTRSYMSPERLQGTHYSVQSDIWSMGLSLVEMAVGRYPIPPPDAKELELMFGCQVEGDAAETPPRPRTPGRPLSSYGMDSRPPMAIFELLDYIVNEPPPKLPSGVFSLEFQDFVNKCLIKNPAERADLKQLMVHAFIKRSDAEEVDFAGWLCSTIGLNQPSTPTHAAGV
T1 sequence (Q02750 whole entry): as above

Compound | GI50 [1] | IC50 [2] | half-life at 1 μM [3, 6] | microsomal CLint at 1 μM [3, 7] | GI50 [4] | Assay 5: human liver S9 instrinsic clearance value ([3]; Table 2, 1 μM, 2 mg/mL S9 protein, NADPH) | microsomal CLint at 1 μM ([3]; Table 1, human liver S9 fraction, read-out: CLint) | half-life at 1 μM ([3]; Table 1, human liver S9 fraction, read-out: Liver S9 t1/2) | IC50 [5]
Cn1c(Nc2ccc(I)cc2F)c(C(=O)NO)c2cccnc21 [Example 4, 2-((2-Fluoro-4-iodophenyl)amino)—N-hydroxy-1-methyl-1H-pyrrolo[2,3-b]pyridine-3-carboxamide] | 5010 nM | 671 nM | 21 min | 16.5 µL/min/mg | 809 nM | – | – | – | –
Cn1c(Nc2ccc(I)cc2F)c(C(=O)NOC[C@H](O)CO)c2cccnc21 [Example 6, (R)—N-(2,3-Dihydroxypropoxy)-2-((2-fluoro-4-iodophenyl)amino)-1-methyl-1H-pyrrolo[2,3-b]pyridine-3-carboxamide] | 448 nM | 371 nM | 90 min | 3.85 µL/min/mg | 81 nM | – | – | – | –
Cn1c(Nc2ccc(I)cc2F)c(C(=O)NOCC2CC2)c2cccnc21 [Example 7, N-(Cyclopropylmethoxy)-2-((2-fluoro-4-iodophenyl)amino)-1-methyl-1H-pyrrolo[2,3-b]pyridine-3-carboxamide] | 346 nM | 260 nM | – | – | 346 nM | 44.80 μL/min/mg protein | 44.8 µL/min/mg | 8 min | –
COc1cnc2c(c1)c(C(=O)NOCCO)c(Nc1ccc(I)cc1F)n2C [Example 8, 2-((2-Fluoro-4-iodophenyl)amino)—N-(2-hydroxyethoxy)-5-methoxy-1-methyl-1H-pyrrolo[2,3-b]pyridine-3-carboxamide] | – | – | 34 min | 10.3 µL/min/mg | – | – | – | – | 243 nM
Cn1c(Nc2ccc(I)cc2F)c(C(=O)NC[C@H](O)CO)c2cccnc21 [Example 10, (S)—N-(2,3-dihydroxypropyl)-2-((2-fluoro-4-iodophenyl)amino)-1-methyl-1H-pyrrolo[2,3-b]pyridine-3-carboxamide] | – | – | 96 min | 3.59 µL/min/mg | – | – | – | – | 1770 nM
Cn1c(Nc2ccc(I)cc2F)c(C(=O)NC[C@@H](O)CO)c2cccnc21 [Example 12, (R)—N-(2,3-dihydroxypropyl)-2-((2-fluoro-4-iodophenyl)amino)-1-methyl-1H-pyrrolo[2,3-b]pyridine-3-carboxamide] | – | – | 105 min | 3.29 µL/min/mg | – | – | – | – | 1780 nM
Cn1c(Nc2ccc(I)cc2F)c(C(N)=O)c2cccnc21 [Example 13, 2-(2-Fluoro-4-iodoanilino)-1-methyl-1H-pyrrolo[2,3-b]pyridine-3-carboxamide] | – | – | 23 min | 15.4 µL/min/mg | – | – | – | – | 9610 nM
